# Several values for one entry are separate records, joined by “and”; a condition that tells them apart may be missing. Equal entries are not always repeated. Records with an inconclusive call do not appear.
# Test system: BDF1 mice, s.c. Lewis lung carcinoma, T/C %
# Test: NCI In Vivo Anticancer Drug Screen. Data for tumor model Lewis Lung Carcinoma (subcutaneous) in B6D2F1 (BDF1) mice
# How it was run: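 Readout: survival or tumor size, expressed as treated (T) over vehicle control (C). Transplantable tumor implanted in mice; compound given to the treated group.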
# [1] = endpoint: median survival time, dose: 1.5 mg/kg/injection, schedule: Q01DX009 (ip), vehicle: Klucel (hydroxypropylcellulose) (HPC), higher = longer survival
# [2] = endpoint: median survival time, dose: 3.0 mg/kg/injection, schedule: Q01DX009 (ip), vehicle: Klucel (hydroxypropylcellulose) (HPC), higher = longer survival
# [3] = endpoint: median survival time, dose: 50.0 mg/kg/injection, schedule: Q01DX009 (ip), vehicle: Klucel (hydroxypropylcellulose) (HPC), higher = longer survival
# [4] = endpoint: median survival time, dose: 100.0 mg/kg/injection, schedule: Q01DX009 (ip), vehicle: Klucel (hydroxypropylcellulose) (HPC), higher = longer survival
# [5] = endpoint: median survival time, dose: 200.0 mg/kg/injection, schedule: Q01DX009 (ip), vehicle: Klucel (hydroxypropylcellulose) (HPC), higher = longer survival
# [6] = endpoint: median survival time, dose: 12.5 mg/kg/injection, schedule: Q01DX009 (ip), vehicle: Klucel (hydroxypropylcellulose) (HPC), higher = longer survival
smiles,measurement,setting,value
S=P(N1CC1)(N1CC1)N1CC1,T/C,"endpoint: mean tumor weight, dose: 0.75 mg/kg/injection, schedule: Q01DX011 (ip), vehicle: water, higher = larger tumour",79 % of control
same,T/C,"endpoint: mean tumor weight, dose: 1.5 mg/kg/injection, schedule: Q01DX011 (ip), vehicle: water, higher = larger tumour",81 % of control
same,T/C,"endpoint: mean tumor weight, dose: 3.0 mg/kg/injection, schedule: Q01DX011 (ip), vehicle: water, higher = larger tumour",44 % of control
same,T/C,"endpoint: mean tumor weight, dose: 6.0 mg/kg/injection, schedule: Q01DX011 (ip), vehicle: water, higher = larger tumour",21 % of control
same,T/C,"endpoint: median survival time, dose: 0.5 mg/kg/injection, schedule: Q01DX009 (ip), vehicle: saline, higher = longer survival",103 % of control
same,T/C,"endpoint: median survival time, dose: 1.0 mg/kg/injection, schedule: Q01DX009 (ip), vehicle: saline, higher = longer survival",100 % of control
same,T/C,"endpoint: median survival time, dose: 1.0 mg/kg/injection, schedule: Q02DX009 (ip), vehicle: saline, higher = longer survival",110 % of control
same,T/C,[1],103 % of control
same,T/C,"endpoint: median survival time, dose: 2.0 mg/kg/injection, schedule: Q01DX009 (ip), vehicle: saline, higher = longer survival",100 % of control
same,T/C,"endpoint: median survival time, dose: 2.0 mg/kg/injection, schedule: Q02DX009 (ip), vehicle: saline, higher = longer survival",98 % of control
same,T/C,[2],113 % of control
same,T/C,"endpoint: median survival time, dose: 4.0 mg/kg/injection, schedule: Q01DX009 (ip), vehicle: saline, higher = longer survival",86 % of control
same,T/C,"endpoint: median survival time, dose: 4.0 mg/kg/injection, schedule: Q02DX009 (ip), vehicle: saline, higher = longer survival",102 % of control
same,T/C,"endpoint: median survival time, dose: 8.0 mg/kg/injection, schedule: Q02DX009 (ip), vehicle: saline, higher = longer survival",94 % of control
O=NN(CCCl)C(=O)Nc1ccc2c3c(cccc13)-c1ccccc1-2,T/C,[3],100 % of control
same,T/C,[4],97 % of control
same,T/C,[5],88 % of control
Nc1ncn(C2CC(O)C(CO)O2)c(=O)n1 (configuration not stated),T/C,"endpoint: median survival time, dose: 0.05 mg/kg/injection, schedule: Q01DX009 (ip), vehicle: saline, higher = longer survival",102 % of control
same,T/C,"endpoint: median survival time, dose: 0.1 mg/kg/injection, schedule: Q01DX009 (ip), vehicle: saline, higher = longer survival",102 % of control and 109 % of control
same,T/C,"endpoint: median survival time, dose: 0.2 mg/kg/injection, schedule: Q01DX009 (ip), vehicle: saline, higher = longer survival",109 % of control and 112 % of control
same,T/C,"endpoint: median survival time, dose: 0.8 mg/kg/injection, schedule: Q01DX009 (ip), vehicle: Klucel (hydroxypropylcellulose) (HPC), higher = longer survival",167 % of control
CCOC(=O)C1=NNC(=O)C1,T/C,"endpoint: mean tumor weight, dose: 222.0 mg/kg/injection, schedule: Q01DX011 (ip), vehicle: other, higher = larger tumour",119 % of control
same,T/C,"endpoint: mean tumor weight, dose: 333.0 mg/kg/injection, schedule: Q01DX011 (ip), vehicle: other, higher = larger tumour",118 % of control
same,T/C,"endpoint: mean tumor weight, dose: 500.0 mg/kg/injection, schedule: Q01DX011 (ip), vehicle: other, higher = larger tumour",75 % of control
same,T/C,"endpoint: mean tumor weight, dose: 750.0 mg/kg/injection, schedule: Q01DX011 (ip), vehicle: other, higher = larger tumour",108 % of control
O=C1c2ccccc2CCc2ccccc21,T/C,"endpoint: mean tumor weight, dose: 133.0 mg/kg/injection, schedule: Q01DX011 (ip), vehicle: other, higher = larger tumour",91 % of control
same,T/C,"endpoint: mean tumor weight, dose: 200.0 mg/kg/injection, schedule: Q01DX011 (ip), vehicle: other, higher = larger tumour",173 % of control
same,T/C,"endpoint: mean tumor weight, dose: 450.0 mg/kg/injection, schedule: Q01DX011 (ip), vehicle: other, higher = larger tumour",74 % of control
Cc1cc(N)c2cc(NC(=O)CCCCCCCCC(=O)Nc3ccc4nc(C)cc(N)c4c3)ccc2n1,T/C,"endpoint: mean tumor weight, dose: 12.5 mg/kg/injection, schedule: Q01DX011 (ip), vehicle: other, higher = larger tumour",108 % of control
same,T/C,"endpoint: mean tumor weight, dose: 50.0 mg/kg/injection, schedule: Q01DX011 (ip), vehicle: other, higher = larger tumour",61 % of control
same,T/C,"endpoint: mean tumor weight, dose: 100.0 mg/kg/injection, schedule: Q01DX011 (ip), vehicle: other, higher = larger tumour",38 % of control
same,T/C,"endpoint: median survival time, dose: 0.05 mg/kg/injection, schedule: Q01DX009 (ip), vehicle: Klucel (hydroxypropylcellulose) (HPC), higher = longer survival",105 % of control
same,T/C,"endpoint: median survival time, dose: 0.1 mg/kg/injection, schedule: Q01DX009 (ip), vehicle: Klucel (hydroxypropylcellulose) (HPC), higher = longer survival",102 % of control
same,T/C,"endpoint: median survival time, dose: 0.19 mg/kg/injection, schedule: Q01DX009 (ip), vehicle: Klucel (hydroxypropylcellulose) (HPC), higher = longer survival",100 % of control
same,T/C,"endpoint: median survival time, dose: 0.38 mg/kg/injection, schedule: Q01DX009 (ip), vehicle: Klucel (hydroxypropylcellulose) (HPC), higher = longer survival",105 % of control
same,T/C,"endpoint: median survival time, dose: 0.75 mg/kg/injection, schedule: Q01DX009 (ip), vehicle: Klucel (hydroxypropylcellulose) (HPC), higher = longer survival",92 % of control
same,T/C,[1],96 % of control
same,T/C,[2],92 % of control
same,T/C,"endpoint: median survival time, dose: 3.12 mg/kg/injection, schedule: Q01DX009 (ip), vehicle: Klucel (hydroxypropylcellulose) (HPC), higher = longer survival",94 % of control
same,T/C,"endpoint: median survival time, dose: 6.25 mg/kg/injection, schedule: Q01DX009 (ip), vehicle: Klucel (hydroxypropylcellulose) (HPC), higher = longer survival",104 % of control
same,T/C,[6],105 % of control
same,T/C,[4],118 % of control
CCCCCC/C=C/[N+]([O-])=NC(COC)C(C)O (configuration not stated),T/C,"endpoint: mean tumor weight, dose: 5.0 mg/kg/injection, schedule: Q01DX011 (ip), vehicle: carboxymethylcellulose (CMC), higher = larger tumour",84 % of control
same,T/C,"endpoint: mean tumor weight, dose: 10.0 mg/kg/injection, schedule: Q01DX011 (ip), vehicle: carboxymethylcellulose (CMC), higher = larger tumour",96 % of control
O=C1c2c(O)ccc(O)c2C(=O)c2c(NCCNCCO)ccc(NCCNCCO)c21,T/C,"endpoint: median survival time, dose: 0.25 mg/kg/injection, schedule: Q01DX009 (ip), vehicle: acid diluted with saline, higher = longer survival",88 % of control
same,T/C,"endpoint: median survival time, dose: 0.5 mg/kg/injection, schedule: Q01DX009 (ip), vehicle: acid diluted with saline, higher = longer survival",95 % of control
same,T/C,"endpoint: median survival time, dose: 0.5 mg/kg/injection, schedule: Q01DX009 (ip), vehicle: saline with Tween-80, higher = longer survival",86 % of control and 106 % of control and 114 % of control
same,T/C,"endpoint: median survival time, dose: 1.0 mg/kg/injection, schedule: Q01DX009 (ip), vehicle: acid diluted with saline, higher = longer survival",102 % of control
same,T/C,"endpoint: median survival time, dose: 1.0 mg/kg/injection, schedule: Q01DX009 (ip), vehicle: saline with Tween-80, higher = longer survival",104 % of control and 105 % of control and 106 % of control
same,T/C,"endpoint: median survival time, dose: 1.0 mg/kg/injection, schedule: Q## X004 (ip), vehicle: acid diluted with saline, higher = longer survival",89 % of control
same,T/C,"endpoint: median survival time, dose: 2.0 mg/kg/injection, schedule: Q01DX009 (ip), vehicle: saline with Tween-80, higher = longer survival",95 % of control
same,T/C,"endpoint: median survival time, dose: 2.0 mg/kg/injection, schedule: Q## X004 (ip), vehicle: acid diluted with saline, higher = longer survival",89 % of control
same,T/C,"endpoint: median survival time, dose: 4.0 mg/kg/injection, schedule: Q## X004 (ip), vehicle: acid diluted with saline, higher = longer survival",101 % of control
Nc1ncnc2c1ccn2C1OC(CO)C(O)C1O (configuration not stated),T/C,"endpoint: mean tumor weight, dose: 0.32 mg/kg/injection, schedule: Q01DX011 (ip), vehicle: saline, higher = larger tumour",77 % of control
same,T/C,"endpoint: mean tumor weight, dose: 0.63 mg/kg/injection, schedule: Q01DX011 (ip), vehicle: saline, higher = larger tumour",60 % of control
same,T/C,"endpoint: mean tumor weight, dose: 1.25 mg/kg/injection, schedule: Q01DX011 (ip), vehicle: saline, higher = larger tumour",84 % of control
same,T/C,"endpoint: median survival time, dose: 0.25 mg/kg/injection, schedule: Q01DX011 (ip), vehicle: other, higher = longer survival",98 % of control
same,T/C,"endpoint: median survival time, dose: 0.5 mg/kg/injection, schedule: Q01DX011 (ip), vehicle: other, higher = longer survival",89 % of control
same,T/C,"endpoint: median survival time, dose: 1.0 mg/kg/injection, schedule: Q01DX011 (ip), vehicle: other, higher = longer survival",110 % of control
same,T/C,"endpoint: median survival time, dose: 2.0 mg/kg/injection, schedule: Q01DX011 (ip), vehicle: other, higher = longer survival",101 % of control
NC(=S)N/N=C/c1nccc2ccccc12,T/C,"endpoint: mean tumor weight, dose: 12.5 mg/kg/injection, schedule: Q01DX011 (ip), vehicle: carboxymethylcellulose (CMC), higher = larger tumour",103 % of control
same,T/C,"endpoint: mean tumor weight, dose: 25.0 mg/kg/injection, schedule: Q01DX011 (ip), vehicle: carboxymethylcellulose (CMC), higher = larger tumour",48 % of control
same,T/C,"endpoint: mean tumor weight, dose: 26.0 mg/kg/injection, schedule: Q01DX011 (ip), vehicle: saline, higher = larger tumour",64 % of control
same,T/C,"endpoint: mean tumor weight, dose: 33.5 mg/kg/injection, schedule: Q01DX011 (ip), vehicle: carboxymethylcellulose (CMC), higher = larger tumour",56 % of control
same,T/C,"endpoint: mean tumor weight, dose: 38.0 mg/kg/injection, schedule: Q01DX011 (ip), vehicle: saline, higher = larger tumour",16 % of control
same,T/C,"endpoint: mean tumor weight, dose: 40.0 mg/kg/injection, schedule: Q01DX011 (oral), vehicle: saline, higher = larger tumour",42 % of control
same,T/C,"endpoint: mean tumor weight, dose: 56.0 mg/kg/injection, schedule: Q01DX011 (ip), vehicle: saline, higher = larger tumour",3 % of control
same,T/C,"endpoint: median survival time, dose: 9.4 mg/kg/injection, schedule: Q01DX009 (ip), vehicle: saline with Tween-80, higher = longer survival",124 % of control
same,T/C,"endpoint: median survival time, dose: 18.8 mg/kg/injection, schedule: Q01DX009 (ip), vehicle: saline with Tween-80, higher = longer survival",98 % of control and 108 % of control
same,T/C,"endpoint: median survival time, dose: 37.5 mg/kg/injection, schedule: Q01DX009 (ip), vehicle: saline with Tween-80, higher = longer survival",98 % of control
Cc1cc(N(CCCl)CCCl)ccc1C=Nc1cccnc1,T/C,"endpoint: median survival time, dose: 25.0 mg/kg/injection, schedule: Q01DX009 (ip), vehicle: Klucel (hydroxypropylcellulose) (HPC), higher = longer survival",104 % of control
same,T/C,"endpoint: median survival time, dose: 25.0 mg/kg/injection, schedule: Q01DX009 (ip), vehicle: saline with Tween-80, higher = longer survival",95 % of control
same,T/C,[3],96 % of control
same,T/C,"endpoint: median survival time, dose: 50.0 mg/kg/injection, schedule: Q01DX009 (ip), vehicle: saline with Tween-80, higher = longer survival",92 % of control
same,T/C,[4],103 % of control
same,T/C,"endpoint: median survival time, dose: 100.0 mg/kg/injection, schedule: Q01DX009 (ip), vehicle: saline with Tween-80, higher = longer survival",93 % of control
same,T/C,[5],98 % of control
COc1cc2c(c(OC)c1OC)-c1ccc(OC)c(=O)cc1[C@@H](NC(=O)CF)CC2,T/C,"endpoint: median survival time, dose: 0.04 mg/kg/injection, schedule: Q01DX009 (ip), vehicle: saline with Tween-80, higher = longer survival",100 % of control
same,T/C,"endpoint: median survival time, dose: 0.09 mg/kg/injection, schedule: Q01DX009 (ip), vehicle: saline with Tween-80, higher = longer survival",95 % of control
same,T/C,"endpoint: median survival time, dose: 0.18 mg/kg/injection, schedule: Q01DX009 (ip), vehicle: saline with Tween-80, higher = longer survival",95 % of control
FC(F)(F)c1cc(CN(CCCl)CCCl)cc(C(F)(F)F)c1,T/C,[6],90 % of control
same,T/C,[3],90 % of control

# Reference: PubChem BioAssay AID270 (DTP/NCI, 2004)
